Data set [1] can be described thus: Study 2: steady-state pharmacokinetic interaction between atazanavir/r and the Compound (85 mg test, 150 mg reference). In kind it is in vivo, human. From the text:
Consideration was given to achieving equivalent Compound exposures in patients receiving and not receiving atazanavir using pharmacokinetic (bio-) equivalence comparisons (Pharsight Corporation, Mountain View, Calif., USA). Consideration was also given to minimizing the number of individuals with extreme outliers in (low or high) exposures.

A short description of data set [2]: Example 2: pharmacokinetic interaction, EVG/ATV 300/400 mg versus EVG/r 300/100 mg, with midazolam CYP3A probe. The conditions noted are these: midazolam oral syrup 5 mg with last dose; EVG/ATV vs. EVG/r. On the procedure: This study evaluated the safety and steady-state pharmacokinetics of the co-administered Compound and ATV.
Healthy subjects received EVG/r 300/100 mg or EVG/ATV 300/400 mg in a randomized, crossover manner for 10 days each, with the last dose being coadministered with the CYP3A probe substrate midazolam (oral syrup; 5 mg) and pharmacokinetic (PK) sampling performed. […] ATV, midazolam, and ritonavir pharmacokinetics were also determined for descriptive statistics.

The nature of data set [3]: Study 1: steady-state pharmacokinetic interaction between atazanavir/r and the Compound (200 mg). The format is in vivo, human. The text has this:
This study evaluated the safety and steady-state pharmacokinetics of the coadministered Compound and ATV/r.

Take `COC(=O)N[C@H](C(=O)N[C@@H](Cc1ccccc1)[C@@H](O)CN(Cc1ccc(-c2ccccn2)cc1)NC(=O)[C@@H](NC(=O)OC)C(C)(C)C)C(C)(C)C` [ATV, 1-[4-(pyridine-2-yl)-phenyl]-4(S)-2,5-bis-[N—(N-methoxycarbonyl-(L)-tert-leucyl)amino]-6-phenyl-2-axahexane]: the “Cmax % GMR (90% CI)” value in data set [1] (Study 2, coadministration (the Compound 85 mg + ATV/r 300/100 mg QD) : alone (the Compound reference 150 mg), 14 days, healthy subjects) is reported as 96.0%. In data set [1] (with the reduced 85 mg dose of the Compound), the ATV exposures entry is reported as “not affected”.

For the molecule `Cc1ncc2n1-c1ccc(Cl)cc1C(c1ccccc1F)=NC2` [midazolam], in data set [2], the “midazolam AUCinf geometric mean ratio (90% CI)” value is recorded as 89.5 (80.7, 99.3) and the “midazolam Cmax geometric mean ratio (90% CI)” value is given as 98.8 (89.6, 109).

As to `COc1cc2c(cc1Cc1cccc(Cl)c1F)c(=O)c(C(=O)O)cn2[C@H](CO)C(C)C` [the Compound, 6-(3-chloro-2-fluorobenzyl)-1-[(2S)-1-hydroxy-3-methylbutan-2-yl]-7-methoxy-4-oxo-1,4-dihydroquinoline-3-carboxylic acid], the systemic exposure result in data set [1] (85 mg of the Compound with ritonavir-boosted atazanavir compared with the 150 mg dose of the Compound alone) was “equivalent”. Further, in data set [3] (Study 1, coadministration (the Compound 200 mg + ATV/r 300/100 mg QD) : alone, 14 days, healthy subjects), the “AUCtau % GMR (90% CI)” value worked out at 200%. For the same molecule, the “the Compound exposures upon coadministration with ATV/r” value in data set [3] (coadministration with ATV/r) was “elevated”.
